Results published in patent EP1125946A1, “Cell adhesion therapy through modulation of a Rap family member or of a GEF (guanine nucleotide exchange factor)” (Universitair Medisch Centrum Utrecht, priority 2000, dated 2001).
Each block holds one molecule with its values, some of them ahead of it.

Experiments:
LFA-1 = assay: flow cytometry of mAB 24 epitope expression on Jurkat cells; type: cell-based; conditions: Jurkat cells coincubated with mAB 24 and 400 µM MnCl2; relative to unstimulated
Method: The anti-aL integrin antibody mAB 24 recognizes a conformation-dependent ligand-induced epitope on LFA-1, and induction of the mAB 24 epitope correlates with increased LFA-1 affinity for ICAM (Dransfield and Hogg, 1989). […] This conformational change can also be induced by LFA-1 exposure to Mn^2+, independently of "inside-out" signalling. […] Incubation of cells with mAB 24 at 4°C abolished CD31 and Mn^2+ -induced mAB 24 expression to background levels (data not shown), consistent with the temperature-sensitivity of the mAB 24 epitope (Dransfield and Hogg, 1989). […]
Flow cytometric analysis of transfected cells was performed by cotransfecting Jurkat JHMI cells with […] pCMV-EGFP C1 plasmid (Promega) and the indicated cDNA constructs. […] Fluorescence intensity of EGFP-transfected cells was determined using a FACsCaliber flow cytometer and CellQuest software (both from Becton Dickinson).
Figure 4. […] Cells were sequentially stained with anti-b2 integrin antibody L15 and rabbit anti-mouse Ig-RPE-Cy5 conjugate, and GFP-expressing cells analysed by flow cytometry. […] Alternatively, unstimulated cells were coincubated with mAB 24 and 400 µM MnCl2 (Mn). mAB 24 expression was assessed by flow cytometry, and expression levels normalized to 1 for unstimulated GFP-alone cells in each experiment. […]

Ras = assay: GTP-bound GTPase pull-down with GST-Raf-RBD and immunoblotting in Jurkat cells; type: cell-based; conditions: Jurkat JHMI 2.2 cells, time-course; TPA 100 ng/ml, 5 minutes
Source text: (§1) To address which Ras family members, if any, might participate in CD31 signaling, we precipitated endogenous GTPases from lysates of CD31-stimulated Jurkat with GST fusion proteins of Ras family-binding domains (RBDs) of Raf and RalGDS, which bind with high selectivity and specificty to activated Ras and Rap GTPases, respectively (de Rooij and Bos, 1997; Franke et al., 1997). Immunoblotting of precipitated GTPases provides a qualitative representation of GTPase activation status following cell stimulation, corresponding to quantitative changes detected using classical GDP/GTP-binding ratio techniques. […] GTP-bound R-Ras was detected in Raf-RBD pull-downs only following longer exposures of films, reflecting the relatively low levels of R-Ras protein expression in Jurkat. […]
Figure 1. […] Bound GTPases were resolved on SDS-PAGE, transferred to PVDF membrane, and detected by immunoblotting with antibodies against the indicated proteins, followed by enhanced chemiuminescence (ECL). […] JHMI cells were activated for 2 minutes with medium (-), anti-CD3 antibody T3b (1:200) or the indicated anti-CD31 antibodies (10 µg/ml), and Rap1 activation detected as in A. Fold activation of Rap1 compared to untreated cells was obtained by quantitating pixels from representative blots using Adobe Photoshop software. […]

Rap1 = assay: GTP-bound GTPase pull-down with GST-RalGDS-RBD and immunoblotting in Jurkat cells; type: cell-based; conditions: Jurkat JHMI 2.2 cells; TPA 100 ng/ml, 5 minutes
Source text: as §1
Figure 1. […] Bound GTPases were resolved on SDS-PAGE, transferred to PVDF membrane, and detected by immunoblotting with antibodies against the indicated proteins, followed by enhanced chemiuminescence (ECL). […] Fold activation of Rap1 compared to untreated cells was obtained by quantitating pixels from representative blots using Adobe Photoshop software. […] CD31 WT, CD31 GPI, and Y663/686F Jurkat cell lines were stimulated for two minutes with medium (-) or 10 µg/ml PECAM 1.3 antibody and activated Rap1 detected as in A. Results shown in each panel are representative of three independent experiments.

[1] = molecular target: catalytic domain of Epac2 (Mus musculus, UniProt Q9EQZ6)
Method: We therefore isolated the regulatory domains of both Epac1 and Epac2 and incubated them with the corresponding catalytic domains.
Protein production was induced in Bl-21 bacteria using 100 nM IPTG for 20 h at room temperature. After protein production, bacteria were pelleted and lyzed in ice-cold PBS containing 1% Triton-X100 and protease inhibitors. The lysate was sonicated three times for 10 seconds and centrifuged at 10,000 x g to remove insoluble material. GST-fusion proteins we purified from the cleared lysate by batch-wise incubation with glutathione-agarose beads (Sigma), eluted from the beads in buffer containing 50 mM Tris pH 7.5, 100 mM NaCl, 10% glycerol and 10mM glutathione and dialyzed for 20 hours in the same buffer without glutathione. When indicated, proteins were cleaved from the GST-tag by incubation with thrombin and purified by gelfiltration.
Briefly, 100 nM of purified GTPase, loaded with fluorescently labeled 2',3'-bis (O) -N-methylantharanoloyl-guanosinediphosphate(mantGDP), was incubated, in the presence of excess unlabelled GDP, with 50 nM of purified GEF unless indicated differently. Release of mGDP was measured in realtime as a decrease in fluorescence. To calculate reaction rates, single exponential functions were fit using the program Grafit3.0 (Eritacus). […]

[2] = molecular target: catalytic domain of Epac1 (Homo sapiens, UniProt O95398)
Method: Next we investigated whether a direct covalent linkage between the catalytic domain and the B-site is essential for this regulation, or whether they can function as separate domains. We therefore isolated the regulatory domains of both Epac1 and Epac2 and incubated them with the corresponding catalytic domains.
For purification of Glutathione S-transferase (GST) -fusion constructs all cDNAs were cloned in pGEX bacterial expression vectors. […] The GST fusion construct of Repac contains amino acids 2-580. The catalytic domain CalDAG-GEFI contains amino acids 3-422. The catalytically active PDZ-GEF1 construct contains amino acids 251-1001. The GST-PKA fusion construct used contained the R1a-subunit of Bovine PKA, lacking amino acids 1-91. Protein production was induced in Bl-21 bacteria using 100 nM IPTG for 20 h at room temperature. After protein production, bacteria were pelleted and lyzed in ice-cold PBS containing 1% Triton-X100 and protease inhibitors. The lysate was sonicated three times for 10 seconds and centrifuged at 10,000 x g to remove insoluble material. […]
Briefly, 100 nM of purified GTPase, loaded with fluorescently labeled 2',3'-bis (O) -N-methylantharanoloyl-guanosinediphosphate(mantGDP), was incubated, in the presence of excess unlabelled GDP, with 50 nM of purified GEF unless indicated differently. Release of mGDP was measured in realtime as a decrease in fluorescence. […]

full length CalDAG-GEF 1 = molecular target: T1, full length CalDAG-GEF 1 (Homo sapiens, UniProt Q7LDG7); assay: in vitro activation of Rap1 (mantGDP-loaded) by full length CalDAG-GEF versus mutant lacking the regulatory domain; type: biochemical; conditions: 100 µM calcium added; compared with mutant lacking the regulatory domain
T1 construct: To that end full length CalDAG-GEF 1 and a CalDAG-Gef mutants lacking the regulatory domain was compared
T1 sequence (Q7LDG7 1-609): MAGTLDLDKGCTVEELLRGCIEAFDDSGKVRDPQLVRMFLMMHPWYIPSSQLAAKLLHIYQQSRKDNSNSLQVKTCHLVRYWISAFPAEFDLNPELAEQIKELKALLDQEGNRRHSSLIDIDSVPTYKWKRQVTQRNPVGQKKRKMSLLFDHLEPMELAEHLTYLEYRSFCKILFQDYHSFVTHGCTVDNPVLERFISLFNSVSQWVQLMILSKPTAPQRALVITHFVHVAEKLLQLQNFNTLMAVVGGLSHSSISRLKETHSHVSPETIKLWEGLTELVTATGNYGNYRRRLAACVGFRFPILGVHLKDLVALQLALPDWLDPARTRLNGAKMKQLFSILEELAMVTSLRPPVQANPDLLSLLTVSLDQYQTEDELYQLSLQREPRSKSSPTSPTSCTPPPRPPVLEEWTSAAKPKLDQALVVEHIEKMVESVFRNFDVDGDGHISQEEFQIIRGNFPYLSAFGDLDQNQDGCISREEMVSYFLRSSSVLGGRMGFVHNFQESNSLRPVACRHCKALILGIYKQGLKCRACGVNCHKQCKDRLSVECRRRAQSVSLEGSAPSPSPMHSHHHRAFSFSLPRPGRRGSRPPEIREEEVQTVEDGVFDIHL
Method: We therefore investigated whether CalDAG-GEF was regulated by an auto-inhibitory domain. To that end full length CalDAG-GEF 1 and a CalDAG-Gef mutants lacking the regulatory domain was compared for in vitro activation of Rap1.
Figure 9. CalDAG-GEF contains an autoinhibitory domain regulated by calcium. Equal amounts of CalDAG-GEF and mutant CalDAG-GEF lacking the DAG and Ca binding domains were incubayed with mantGDP-loaded Rap1 and incubated in the presence or absence of 100 µM calcium.

Chain of catalytic domain of Epac1 (O95398 44-371): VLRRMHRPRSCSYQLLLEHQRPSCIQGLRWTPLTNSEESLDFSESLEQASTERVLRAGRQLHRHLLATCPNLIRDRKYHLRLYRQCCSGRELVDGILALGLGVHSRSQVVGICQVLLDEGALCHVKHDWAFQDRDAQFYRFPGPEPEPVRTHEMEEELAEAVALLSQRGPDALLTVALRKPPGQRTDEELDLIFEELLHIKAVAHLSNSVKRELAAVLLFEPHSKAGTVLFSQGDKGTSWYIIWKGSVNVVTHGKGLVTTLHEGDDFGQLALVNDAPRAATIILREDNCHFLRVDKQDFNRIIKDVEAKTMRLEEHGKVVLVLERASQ
Chain of catalytic domain of Epac2 (Q9EQZ6 478-1011): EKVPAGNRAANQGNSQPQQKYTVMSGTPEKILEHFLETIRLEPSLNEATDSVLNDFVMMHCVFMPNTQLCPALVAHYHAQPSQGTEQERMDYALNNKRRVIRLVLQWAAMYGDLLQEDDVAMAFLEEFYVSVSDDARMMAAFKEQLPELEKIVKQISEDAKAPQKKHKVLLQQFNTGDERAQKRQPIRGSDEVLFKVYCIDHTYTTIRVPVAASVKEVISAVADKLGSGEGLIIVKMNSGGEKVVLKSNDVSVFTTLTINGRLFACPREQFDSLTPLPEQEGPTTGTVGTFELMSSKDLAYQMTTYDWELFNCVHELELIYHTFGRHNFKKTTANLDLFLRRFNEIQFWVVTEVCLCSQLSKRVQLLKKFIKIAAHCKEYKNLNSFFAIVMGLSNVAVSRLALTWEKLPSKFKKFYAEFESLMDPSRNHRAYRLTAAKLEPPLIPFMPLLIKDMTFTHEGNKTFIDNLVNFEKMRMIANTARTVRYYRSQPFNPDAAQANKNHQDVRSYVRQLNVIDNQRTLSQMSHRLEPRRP
Chain of catalytic domain of Epac2 (Q9EQZ6 1-463 isoform Q9EQZ6-3 partner): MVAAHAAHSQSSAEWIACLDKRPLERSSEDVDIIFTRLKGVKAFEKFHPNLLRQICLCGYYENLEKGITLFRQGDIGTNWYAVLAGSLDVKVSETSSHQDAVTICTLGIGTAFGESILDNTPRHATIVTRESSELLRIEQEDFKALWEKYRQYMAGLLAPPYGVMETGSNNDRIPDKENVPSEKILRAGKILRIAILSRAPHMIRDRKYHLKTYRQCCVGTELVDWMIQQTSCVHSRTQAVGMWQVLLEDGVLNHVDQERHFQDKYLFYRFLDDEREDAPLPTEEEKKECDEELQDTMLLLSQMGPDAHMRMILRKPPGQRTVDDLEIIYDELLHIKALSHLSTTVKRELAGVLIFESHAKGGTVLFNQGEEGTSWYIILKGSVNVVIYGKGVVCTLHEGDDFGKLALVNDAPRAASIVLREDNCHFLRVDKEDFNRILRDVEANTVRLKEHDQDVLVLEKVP

Structure (SMILES): [Cl][Mn][Cl] [Mn^2+, MnCl2]
increase in mAB 24 expression (LFA-1): 2.25-2.5 fold

Structure (SMILES): CCCCCCCCCCCCCC(=O)O[C@@H]1[C@@H](C)[C@@]2(O)[C@@H](C=C(CO)C[C@]3(O)C(=O)C(C)=C[C@@H]23)[C@@H]2C(C)(C)[C@]12OC(C)=O [TPA]
activation of Ras (Ras): activated
activation of Rap1 (Rap1): activated

effect on inhibition of the catalytic domain by the regulatory domain [1]: abolishes the inhibitory effect
effect on inhibition of the catalytic domain by the regulatory domain [2]: abolishes the inhibitory effect
Structure (SMILES): Nc1ncnc2c1ncn2[C@@H]1O[C@@H]2COP(=O)(O)O[C@H]2[C@H]1O [cAMP]

Structure (SMILES): [Ca+2] [calcium]
efficiency of full length CalDAG-GEF in activating Rap1 (full length CalDAG-GEF 1): became as efficient as the mutant
